Among the data in ChEMBL document CHEMBL1157539, “Thousands of chemical starting points for antimalarial lead identification” (Nature, 2010) are XC50 values, retold here.

Each structure is given as a SMILES string.

The test system of this experiment is Plasmodium falciparum. The experiment is described as follows: GSK_TCMDC: Inhibition of Plasmodium falciparum 3D7 in whole erythrocytes, using parasite LDH activity as an index of growth. The format is functional, organism-based. The conditions noted are these: Plasmodium falciparum, 3D7.
In turn, `O=C(N[C@H](CC1CCCCC1)C(=O)NC1CCCc2ccccc21)c1ccc(O)c(-c2cccc([N+](=O)[O-])c2)c1` (some centres not stated) gave an XC50 of 0.61 µM.
As for `OC(CNCc1ccccc1OCc1ccccc1)c1cc(Br)cs1` (configuration not stated), the figure is 0.722 µM; as for `CCN(CC)CCN(Cc1ccc(-c2ccc(C(F)(F)F)cc2)nc1)C(=O)Cn1c(SCc2ccc(F)cc2)nc(=O)c2sccc21`, 0.84 µM; as for `O=C(NC1c2ccccc2Oc2ccccc21)c1ccccc1O`, 0.844 µM.
The value for `Cn1cc(C2CCN(CCCCCNC(=O)/C=C/c3ccc(Cl)c(Cl)c3)CC2)c2cc(O)ccc21` was 0.943 µM.
As for `CC=CCON1C(=N)NC(=N)NC1(C)C`, the figure is 0.0279 µM; as for `O=C(NCCc1cccc(Cl)c1Cl)c1ccc(N2CCN(c3ccncc3)CC2)nc1`, 1.06 µM.
On to `CC(C)(C)OC(=O)NCCc1cccc(-c2c[nH]c3ncc(-c4cccc(NS(C)(=O)=O)c4)cc23)c1`, for which the XC50 worked out at 0.684 µM.
As for `COc1cccc(NC(=O)Nc2c(-c3cccc(C(F)(F)F)c3)c(C(F)(F)F)nn2C)c1`, the figure is 0.911 µM.
The value for `CC(C)N1CCC(Oc2ccc(CN3CCN(C(c4ccccc4)c4ccc(Cl)cc4)CC3)cc2)CC1` (configuration not stated) was 0.937 µM; that for `OC(CNCc1ccccc1OCc1ccccc1)c1cccc(Br)c1` (configuration not stated) was 0.643 µM; that for `O=C(Nc1cccc(CN2CCCN(Cc3ccsc3)CC2)c1)c1ccc(-c2ccccc2)cc1` was 1.34 µM.
For the molecule `CN1CCC(NCc2cccc(-c3nn(C)c4nc(NC5CCCC5)ncc34)c2)CC1`, the XC50 was 1.02 µM.
As for `CC(C)(C)c1ccc(C(=O)Nc2cccc(Nc3c(C(=O)NCc4cccc(C(F)(F)F)c4)cnc4c(O)cccc34)c2)cc1`, the figure is 1.09 µM; as for `COc1cc(N)c(Cl)cc1C(=O)NC1CCC(NCC2CCCCC2)CC1` (configuration not stated), 0.426 µM.
As for `CCOc1ccc(NC(=O)c2ccc(CN3CCCN(Cc4cccc(O)c4)CC3)cc2)cc1`, the figure is 1.31 µM; as for `O=C(Nc1cc(F)cc(-c2cccnc2)c1)c1ccc2c(=O)n(Cc3ccccc3)cnc2c1`, 1.33 µM.
As for `Cn1cc(Br)c(-c2cccc(Nc3ccnc4cc(-c5nccs5)ccc34)c2)n1`, the figure is 0.979 µM; as for `CCOC(=O)c1c[nH]c2c(ccc3ccccc32)c1=O`, 0.157 µM; as for `CNCc1cccc(-c2ccc3ccnc(N)c3c2)c1`, 0.0931 µM.
With `O=C(Nc1ccc(Cl)cc1)Nc1ccc(-c2ccc(-c3nc4ccccc4[nH]3)cc2)cc1`, the XC50 turned out to be 0.0507 µM.
As for `COc1cc(C(=O)Nc2cccc(-c3cn4cccc(C)c4n3)c2)cc(OC)c1OC`, the figure is 0.697 µM.
Take `O=c1cc(NCCCNCc2cc3c(Cl)cc(Cl)cc3[nH]2)[nH]c2ccccc12`: the XC50 was 0.862 µM.
The value for `COc1cc2ccccc2cc1CNCCCCCCNCc1cc2ccccc2cc1OC` was 0.72 µM.
As for `Cc1ccc(C2(C)CN(CCCOc3cccc(-c4ccc(C(=O)NC(C)C)cc4)c3)CCO2)cc1` (configuration not stated), the figure is 0.96 µM.
For `CCOc1ccc(-c2nonc2NC(=O)c2ccccc2OC)cc1OCC`, the XC50 came to 0.241 µM.
On to `CC(C)Cc1csc(NC(=O)C=Cc2ccco2)c1C(=O)O`, for which the XC50 is 0.305 µM.
As for `COc1ccc2c(c1)Sc1ccccc1C(N1CCN(CCO)CC1)C2` (configuration not stated), the figure is 1.39 µM; as for `CCCN(c1ccc(O)c(CN2CCCCC2)c1)c1ccc([N+](=O)[O-])cn1`, 0.805 µM; as for `COc1ccc(C#Cc2ccc(-c3c(C)[nH]c(C)c(Cl)c3=O)cc2)cc1`, 0.0665 µM.
The value for `O=C(Nc1cccc(C(F)(F)F)c1)c1cc([N+](=O)[O-])cc2cn[nH]c12` was 0.995 µM; that for `O=[N+]([O-])c1cc(C(c2ccc(O)c([N+](=O)[O-])c2)C(Cl)(Cl)Cl)ccc1O` was 0.734 µM; that for `O=C(Nc1ccc(-c2cccc(-c3nc4ccccc4[nH]3)c2)cc1)Nc1ccc(F)c(F)c1F` was 0.182 µM.
The value for `CC(C)n1ncc2c3c(N)nc(N)nc3ccc21` was 0.333 µM; that for `Nc1cccc(CNCc2cccc(-c3csc(-c4nc5ccccc5[nH]4)c3)c2)c1` was 0.685 µM; that for `Cc1cccc(CNc2nc(C)cc(N[C@@H](Cc3ccccc3)C(=O)NCCOc3ccccc3)n2)c1` was 0.914 µM.
In the case of `COc1ccc(-c2cccc(NC(=O)c3cccc(C#N)c3)c2)cc1CNC(C)C`, the XC50 stood at 0.694 µM.
In turn, `COc1ccccc1CCCN1C(=O)C(c2ccccc2)(c2ccccc2)N=C1N` came in with an XC50 of 0.265 µM.
Molecule `CS(=O)(=O)CCNCc1cccc(-c2cc3c(Nc4ccc5c(cnn5Cc5ccccc5)c4)ncnc3s2)c1` yielded an XC50 of 0.553 µM.
As for `CN1CCN(c2cc3c(cc2Cl)CCN3C(=O)Cc2ccc(Cl)c(NC(=O)Nc3cccc([N+](=O)[O-])c3)c2)CC1`, the figure is 0.718 µM.
The value for `O=C(Nc1cccc(CN2CCN(Cc3ccc(O)cc3)CC2)c1)c1cc2ccccc2s1` was 0.682 µM; that for `COc1ccc(F)cc1-c1ccccc1CNC(=O)c1cnn(-c2ccc([N+](=O)[O-])cc2)c1C(F)(F)F` was 0.596 µM.
The value for `C=CCn1c(=N)c(C(=O)NC2CCCCC2)cc2c(=O)n3cccc(C)c3nc21` was 1.04 µM; that for `O=C(CC1SC(N2N=C(c3cccs3)CC2c2ccccc2)=NC1=O)Nc1ccc(Cl)cc1` (configuration not stated) was 1.68 µM.
Regarding `Fc1ccc(-c2nc(NCc3cccc(C(F)(F)F)c3)nn2-c2cccc(C(F)(F)F)c2)cc1C(F)(F)F`, the XC50 was 1.05 µM.
The value for `CCN(CCCN1CCCCC1)c1cc(C)nc(Nc2cccc(C(F)(F)F)c2)n1` was 0.289 µM.
For the molecule `Nc1c(Cl)cc(C(O)CNCCCCCCOCCc2ccc(O)cc2)cc1Cl` (configuration not stated), the XC50 was determined as 0.725 µM.
The value for `Cc1cc(NC(=O)c2cccs2)ccc1OC1CCN(Cc2ccccc2)CC1` was 0.874 µM; that for `OCC1CCN(Cc2ccc(-c3cccc(-c4nc5cc(F)ccc5[nH]4)c3)cc2)CC1` was 0.91 µM; that for `CC(C)CN(c1nc(C(=O)NNC(=O)[C@H](CC2CC2)NC(=O)c2cc3cc(OCCN4CCCCC4)ccc3o2)cs1)C1CC1` was 0.213 µM.
As for `Cc1cc2nc(-c3ccc(SCC(=O)Nc4ccc5c(c4)OCCO5)nc3)[nH]c2cc1C`, the figure is 0.989 µM.
The value for `c1ccc(CNCc2ccc(-c3cccc(-c4nc5ccccc5[nH]4)c3)cc2)cc1` was 0.422 µM.
In turn, `NC1CCN(CCc2ccc(NS(=O)(=O)c3ccc(-c4ccccc4)cc3)cc2)CC1` returned an XC50 of 1.02 µM.
In turn, `Clc1cc(Nc2ncnc3cc(C#C[C@H]4CCCN4)sc23)cc2nc(Cc3ccccc3)[nH]c12` displayed an XC50 of 0.852 µM.
Molecule `COc1ccc(Nc2nccc(N3CCC(NC(=O)Nc4cc(C)ccc4C)C3)n2)cc1` (configuration not stated) yielded an XC50 of 0.901 µM.
As to `CN1CCN(CCCCCCNc2c3ccccc3nc3ccccc23)CC1`, the XC50 turned out to be 0.722 µM.
Regarding `N#Cc1ccc(-c2ccc(C(=O)NC3CCN(CCN4CCC(c5cn(CCOC6CCCCO6)c6ccccc56)CC4)CC3)cc2)cc1` (configuration not stated), the XC50 is 0.599 µM.
In the case of `CC(C)CNCc1ccc(-c2cccc(CN(CCN(C)C)C(=O)NCCc3ccccc3)c2)cc1`, the XC50 is 1.06 µM.
As for `OCCN1CCN(Cc2cccc(-c3ccc(-c4nc5cc(C(F)(F)F)ccc5[nH]4)s3)c2)CC1`, the figure is 0.0867 µM; as for `O=C(CN1CCCC1)Nc1cccc(C(=O)Nc2cccc(C(F)(F)F)c2)c1`, 0.51 µM; as for `Fc1ccc2[nH]ccc(=NN=Cc3ccccc3Cl)c2c1`, 0.921 µM.
As for `Cn1c(N=C2NC3(c4ccccn4)NC(=Nc4nc5ccccc5n4C)NC3(c3ccccn3)N2)nc2ccccc21` (configuration not stated), the figure is 1.04 µM.
The molecule `COc1ccc(CNC(=O)NC2CCN(c3ccnc(Nc4ccc(F)cc4)n3)CC2)cc1` displayed an XC50 of 1.05 µM.
As for `COc1cccc(Cn2ccc3c4c(N)nc(N)nc4ccc32)c1`, the figure is 0.0032 µM.
For `CN(C)c1ccc(C=C2SC(=N)N(c3nccs3)C2=O)cc1`, the XC50 worked out at 0.461 µM.
The value for `Oc1ccc(CCCNc2nc(NCc3ccccc3-c3ccccc3)nc(NC3CCNCC3)n2)cc1` was 0.864 µM.
As for `COc1ccc2c(=NN=Cc3cccc(C)n3)cc(-c3ccccc3)[nH]c2c1`, the figure is 0.751 µM; as for `O=C(N[C@@H](Cc1ccccc1)C(=O)NC1CCCCCC1)c1ccc(O)c(-c2ccc(Cl)c(Cl)c2)c1`, 0.329 µM; as for `COC(=O)c1ccc(CC(C)NCC(O)c2cccc(C(F)(F)F)c2)c(Cl)c1` (configuration not stated), 0.854 µM.
`Nc1nc(N)c2c(Oc3cc(Cl)c(Cl)c(Cl)c3)cccc2n1`: the XC50 turned out to be 0.804 µM.
As for `CN(C)CCCN1C(=O)c2[nH]nc(-c3ccc(Cl)cc3O)c2C1c1ccc(Cl)cc1` (configuration not stated), the XC50 stood at 0.758 µM.
The value for `NC(=O)NC(=O)C=Cc1ccco1` was 0.15 µM.
The molecule `Cc1n[nH]c2cc(Nc3ccnc(Nc4cccc(CN5CCOCC5)c4)n3)ccc12` registered an XC50 of 1.58 µM.
The value for `CCCc1cc(N2CCC(N(CC)CC)C2)nc(Nc2ccc(OC)cc2)n1` (configuration not stated) was 0.168 µM.
The value for `CCOc1ccc(-c2nonc2NC(=O)c2ccc(OC(C)C)cc2)cc1OCC` was 0.601 µM.
As for `O=C(C=Cc1ccc(Cl)c(Cl)c1)NCCCCCN1CCC(CCNS(=O)(=O)c2ccc(Br)cc2)CC1`, the figure is 1.12 µM; as for `COc1ccc2nccc(NC(=O)C3(O)CCC(NCc4ccc5c(c4)NCCS5)CC3)c2n1` (configuration not stated), 0.598 µM; as for `CN(C)C1CCN(CC#Cc2cc3ncnc(Nc4ccc(OCc5cccc(F)c5)c(Cl)c4)c3s2)CC1`, 0.887 µM.
`Cc1cc(-c2c[nH]c3ncc(-c4cccc5ncccc45)cc23)ccc1C(=O)O` gave an XC50 of 0.761 µM.
The value for `O=C(Nc1ccc(CN2CCC(c3c[nH]c4ccc(O)cc34)CC2)cc1)c1ccc(-c2ccccc2)cc1` was 0.253 µM; that for `O=C(/C=C/c1ccc(Cl)c(Cl)c1)NC1CCC(CN2CCC(c3nc4cccnc4[nH]3)CC2)CC1` (configuration not stated) was 1.23 µM; that for `CCN(CC)CCN1C(=O)C(O)(c2ccccc2Cl)c2c1cc(C#N)cc2C(F)(F)F` (configuration not stated) was 0.947 µM.
As for `O=C(/C=C/c1ccc(Cl)c(Cl)c1)NCCCCCN1CCC(NC(=O)Nc2cc(Cl)nc(Cl)c2)CC1`, the figure is 0.976 µM.
As for `Cc1cc(C)c2nc(N3CCC(C(=O)NCCCN4CCC(N5CCCCC5)CC4)CC3)sc2c1`, the figure is 0.838 µM.
Molecule `Fc1cccc(Nc2nc(NCCc3ccc(Cl)cc3)nc(Nc3cccc(F)c3)n2)c1` displayed an XC50 of 1.07 µM.
In turn, `COc1coc(C(=O)NC2CCN(CC3(c4ccc(Cl)cc4)CCC3)CC2)c1OC` showed an XC50 of 0.164 µM.
As for `CC(NC(=O)c1cc(-c2ccccc2)nc2c1cnn2C(C)C)C1CC1` (configuration not stated), the figure is 1.28 µM.
